Assays:
[1] = Intravenous pharmacokinetic study in rats (tail vein; plasma d-amphetamine by LC-MS/MS); format: in vivo, rat; conditions: for AUC0-2 hr / Cmax / Tmax: d-amphetamine in plasma, rat, intravenous (tail vein), 5.6 μmol/kg, sampled to 2 hours
Description: (§1) Conjugates of d-amphetamine, and d-amphetamine sulfate or lisdexamfetamine dimesylate comparator compound were dissolved in an appropriate vehicle and administered in rats at doses of 5.6 μmol/kg by injecting the solution into the tail vein. Whole blood samples were collected via retro-orbital bleeding at 5 minutes and at 0.25, 0.5, 1 and 2 hours postdose. Blood samples were centrifuged and the resulting plasma samples were collected for analysis of levorphanol concentrations by LC-MS/MS.

[2] = Oral pharmacokinetic study in rats (plasma amphetamine by LC-MS/MS); format: in vivo; conditions: d-amphetamine in plasma; rat, oral gavage, 5.6 μmol/kg; 6-hour time course
Description: as §1, with “rats via oral gavage” for “rats”, “5.6 μmol/kg.” for “5.6 μmol/kg by injecting the solution into the tail vein.”, “at” for “at 5 minutes and at”, “0.5, 1, 2, 4,” for “0.5, 1”, “and optionally at 3 and 6” for “and 2”, “of amphetamine” for “of levorphanol”

[3] = Intranasal pharmacokinetic study in rats (plasma amphetamine by LC-MS/MS); format: in vivo; conditions: d-amphetamine in plasma, rat, 4-hour time course

Compound	exposure to d-amphetamine after intravenous administration compared to the nicotinoyl analogue ([1]; intravenous, compared to AMP-CO2CH2-nicotinoyl-Val-NH2, FIG. 32)	AUC0-4 hr [2] [ng·h/mL]	AUC0-6 hr [2] [ng·h/mL]	Cmax [2] [ng/mL]	Tmax [2] [min]	AUC0-2 hr [1] [ng·h/mL]	Cmax [1] [ng/mL]	Tmax [1] [min]	AUC0-1 hr [3] [ng·h/mL]	AUC0-4 hr [3] [ng·h/mL]	Cmax [3] [ng/mL]	Tmax [3] [min]	melting point [°C]
CC(C)[C@H](NC(=O)c1cc[n+](COC(=O)N[C@@H](C)Cc2ccccc2)cc1)C(N)=O [AMP-CO2CH2-isonicotinoyl-Val-NH2, d-amphetamine-CO2CH2-isonicotinoyl-valinamide]	decreases exposure to d-amphetamine	–	–	–	–	–	–	–	–	–	–	–	–
d-amphetamine-CO2CH2-isonicotinate ethyl ester [AMP-CO2CH2-isonicotinate(Et)]	–	75.4	106.6	26.0	90	26.5	18.8	43.2	8.6	32.6	11.1	37.8	–
CCOC(=O)C(C)NC(=O)c1cc[n+](COC(=O)N[C@@H](C)Cc2ccccc2)cc1 (stereo partly drawn) [AMP-CO2CH2-isonicotinoyl-Ala-OEt, d-amphetamine-CO2CH2-isonicotinoyl-alanine ethyl ester]	–	72.8	105.7	28.5	120	32.4	24.7	31.2	–	–	–	–	–
C[C@@H](Cc1ccccc1)NC(=O)OC[n+]1ccc(C(=O)O)cc1 [AMP-CO2CH2-isonicotinate, d-amphetamine-CO2CH2-isonicotinate]	–	–	–	–	–	–	–	–	–	–	–	–	168 to 170

Reference: patent US11136295B2, “D-amphetamine compounds, compositions, and processes for making and using the same” (KemPharm, Inc., priority 2018, dated 2021)
